Measurements taken from patent US20170210738A1, “GLUCOSE TRANSPORT INHIBITORS” (Bayer Pharma Aktiengesellschaft, priority 2014, published 2017).

target: T1, GLUT1 (Homo sapiens, UniProt P11166); test: Indirect measurement of GLUT activity by quantification of intracellular ATP levels: glucose induced ATP increase (GLUT1 inhibition); format: cell-based; settings: DLD1 cells; 1 mM glucose, 1 uM Rotenone, 15 min; CellTiter-Glo ATP levels; IC50 values standardized to cytochalasin B IC50 values; read-out: IC50 regarding glucose induced ATP increase (GLUT1 inhibition)
T1 construct: endogenous in cells; host or cells: DLD1 or CHO-K1
T1 sequence (P11166 1-492): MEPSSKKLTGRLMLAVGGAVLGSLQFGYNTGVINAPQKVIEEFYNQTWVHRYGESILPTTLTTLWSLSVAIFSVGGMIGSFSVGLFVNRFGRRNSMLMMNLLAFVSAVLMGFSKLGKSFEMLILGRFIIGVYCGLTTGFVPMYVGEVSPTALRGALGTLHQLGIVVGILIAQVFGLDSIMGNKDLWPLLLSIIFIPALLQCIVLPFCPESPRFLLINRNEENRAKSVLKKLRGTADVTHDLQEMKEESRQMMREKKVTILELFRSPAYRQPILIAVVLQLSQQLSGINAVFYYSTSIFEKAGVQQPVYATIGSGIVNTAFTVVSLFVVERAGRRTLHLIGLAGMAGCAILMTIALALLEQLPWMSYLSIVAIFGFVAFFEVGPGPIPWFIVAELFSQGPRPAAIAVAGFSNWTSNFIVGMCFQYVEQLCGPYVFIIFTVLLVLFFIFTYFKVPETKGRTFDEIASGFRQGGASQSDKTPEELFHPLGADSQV
Source text: (§1) Indirect Measurement of GLUT Activity by Quantification of Intracellular ATP Levels
(§2) It is well known that a combination of small-molecule inhibitors of mitochondrial electron transport chain and glucose catabolism synergistically suppress ATP production and impair cellular viability (Ulanovskaya et al., 2008, 2011; Liu, et al. 2001). We therefore used DLD1 or CHO-K1 cells in combination with an oxidative phosphorylation inhibitor to identify GLUT inhibitors. Cell lines were maintained in DMEM medium supplemented with 10% FCS and 1% Penicillin-Streptomycin solution and 2% Glutamax. The cells were treated with trypsin and seeded into 384 plates at a density of 4000 cells/well. The cells were then cultured overnight in glucose free media containing 1% FCS to reduce intracellular ATP levels. After 24 h the cells were incubated at 37° C. containing the appropriate glucose or in case of GLUT2 fructose concentration (1 mM and 30 mM respectively) with or without compounds and 1 uM Rotenone for 15 min. The CellTiter-Glo® Luminescent Cell Viability Assay from Promega was then used to measure ATP levels. Compounds able to reduce the ATP levels within 15 min of glucose application were considered to be glucose uptake inhibitors.

Row | IC50 [nM] | SMILES
1 | 9.4 | Cc1ccc2nc(C)cc(C(=O)Nc3cnn(Cc4ccc(F)cc4)c3C)c2c1 [Example 1, N-[1-(4-fluorobenzyl)-5-methyl-1H-pyrazol-4-yl]-2,6-dimethylquinoline-4-carboxamide]
2 | 87 | COc1cc(C(=O)Nc2cnn(Cc3ccc(C#N)cc3)c2C)c2ccccc2n1 [Example 10, N-[1-(4-cyanobenzyl)-5-methyl-1H-pyrazol-4-yl]-2-methoxyquinoline-4-carboxamide]
3 | 2220 | CNC(=O)c1nc(Cn2ncc(NC(=O)c3cc(C(N)=O)nc4ccccc34)c2C)no1 [Example 36, N^4-(5-methyl-1-{[5-(methylcarbamoyl)-1,2,4-oxadiazol-3-yl]methyl}-1H-pyrazol-4-yl)quinoline-2,4-dicarboxamide]
4 | 1920 | CCc1noc(Cn2ncc(NC(=O)c3cc(C(N)=O)nc4ccccc34)c2C)n1 [Example 37, N^4-{1-[(3-ethyl-1,2,4-oxadiazol-5-yl)methyl]-5-methyl-1H-pyrazol-4-yl}quinoline-2,4-dicarboxamide]
5 | 615 | CCS(=O)(=O)N1CCC(Cn2ncc(NC(=O)c3cc(C(F)(F)F)nc4ccc(Br)cc34)c2C)CC1 [Example 38, 6-bromo-N-(1-{[1-(ethylsulfonyl)piperidin-4-yl]methyl}-5-methyl-1H-pyrazol-4-yl)-2-(trifluoromethyl)quinoline-4-carboxamide]
6 | 517 | Cc1nc(Cn2ncc(NC(=O)c3cc(C(N)=O)nc4ccccc34)c2C)cs1 [Example 39, N^4-{5-methyl-1-[(2-methyl-1,3-thiazol-4-yl)methyl]-1H-pyrazol-4-yl}quinoline-2,4-dicarboxamide]
7 | 456 | CNC(=O)c1nc(Cn2ncc(NC(=O)c3cc(C(F)(F)F)nc4ccc(Br)cc34)c2C)no1 [Example 40, 6-bromo-N-(5-methyl-1-{[5-(methylcarbamoyl)-1,2,4-oxadiazol-3-yl]methyl}-1H-pyrazol-4-yl)-2-(trifluoromethyl)quinoline-4-carboxamide]
8 | 284 | Cc1nc(Cn2ncc(NC(=O)c3cc(C(F)(F)F)nc4ccc(Br)cc34)c2C)cs1 [Example 41, 6-bromo-N-{5-methyl-1-[(2-methyl-1,3-thiazol-4-yl)methyl]-1H-pyrazol-4-yl}-2-(trifluoromethyl)quinoline-4-carboxamide]
9 | 1130 | Cc1cc(Cn2ncc(NC(=O)c3cc(C(F)(F)F)nc4ccc(Br)cc34)c2C)no1 [Example 42, 6-bromo-N-{5-methyl-1-[(5-methyl-1,2-oxazol-3-yl)methyl]-1H-pyrazol-4-yl}-2-(trifluoromethyl)quinoline-4-carboxamide]
10 | 396 | CCS(=O)(=O)N1CCC(Cn2ncc(NC(=O)c3cc(C(N)=O)nc4ccccc34)c2C)CC1 [Example 43, N^4-(1-{[1-(ethylsulfonyl)piperidin-4-yl]methyl}-5-methyl-1H-pyrazol-4-yl)quinoline-2,4-dicarboxamide]
11 | 531 | Cc1c(NC(=O)c2cc(C(F)(F)F)nc3ccc(Br)cc23)cnn1Cc1ccn(C)n1 [Example 44, 6-bromo-N-{5-methyl-1-[(1-methyl-1H-pyrazol-3-yl)methyl]-1H-pyrazol-4-yl}-2-(trifluoromethyl)quinoline-4-carboxamide]
12 | 222 | Cc1cc(Cn2ncc(NC(=O)c3cc(C(N)=O)nc4ccccc34)c2C)no1 [Example 45, N^4-{5-methyl-1-[(5-methyl-1,2-oxazol-3-yl)methyl]-1H-pyrazol-4-yl}quinoline-2,4-dicarboxamide]

target: T2, GLUT2 (Homo sapiens, UniProt P11168); test: Indirect measurement of GLUT activity by quantification of intracellular ATP levels: fructose induced ATP increase (GLUT2 inhibition); format: cell-based; settings: 30 mM fructose, 1 uM Rotenone, 15 min; CellTiter-Glo ATP levels; DLD1 or CHO-K1 cells; read-out: IC50 regarding fructose induced ATP increase (GLUT2 inhibition)
T2 construct: host or cells: DLD1 or CHO-K1
T2 sequence (P11168 1-524): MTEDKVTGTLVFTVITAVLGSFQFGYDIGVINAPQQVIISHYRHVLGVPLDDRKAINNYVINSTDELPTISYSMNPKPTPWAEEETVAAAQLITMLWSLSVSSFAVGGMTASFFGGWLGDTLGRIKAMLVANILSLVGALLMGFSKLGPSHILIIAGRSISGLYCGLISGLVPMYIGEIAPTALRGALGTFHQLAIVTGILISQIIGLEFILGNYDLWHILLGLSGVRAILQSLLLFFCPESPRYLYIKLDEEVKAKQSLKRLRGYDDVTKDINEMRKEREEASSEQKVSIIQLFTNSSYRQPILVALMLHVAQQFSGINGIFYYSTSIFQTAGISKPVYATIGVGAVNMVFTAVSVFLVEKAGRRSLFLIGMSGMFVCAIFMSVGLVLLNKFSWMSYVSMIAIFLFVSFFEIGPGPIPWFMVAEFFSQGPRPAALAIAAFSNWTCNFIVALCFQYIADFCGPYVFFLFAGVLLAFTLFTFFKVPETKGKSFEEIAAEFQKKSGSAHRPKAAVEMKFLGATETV
Source text: as §1, §2

Row | IC50 [nM] | SMILES
13 | 5990 | Cc1ccc2nc(C)cc(C(=O)Nc3cnn(Cc4ccc(F)cc4)c3C)c2c1 [Example 1, N-[1-(4-fluorobenzyl)-5-methyl-1H-pyrazol-4-yl]-2,6-dimethylquinoline-4-carboxamide]
14 | 1650 | COc1cc(C(=O)Nc2cnn(Cc3ccc(C#N)cc3)c2C)c2ccccc2n1 [Example 10, N-[1-(4-cyanobenzyl)-5-methyl-1H-pyrazol-4-yl]-2-methoxyquinoline-4-carboxamide]
